Experimental data from US20210052874A1, “ULTRASOUND DEVICE AND THERAPEUTIC METHODS” (priority 2011, published 2021).

Assay: In vitro transdermal delivery of carboxyfluorescein through mouse skin in a Franz diffusion cell, with or without low frequency ultrasound (LFUS)
Assay type: in vitro ADME
Conditions: for Delivery Efficiency (% of CF delivered) / Enhancement Ratio v. free CF, no LFUS: mouse skin
Protocol: An in vitro study was performed to evaluate the ability of the present invention to enable transdermal delivery of substantially intact encapsulated drugs. The study involved applying low intensity, low pressure amplitude ultrasound waves to mouse skin in order to mediate transdermal delivery of liposome encapsulated carboxyfluorescein (CF), a hydrophilic dye. […] In this setup, an ultrasound applicator 10 having 4 transducers 12 arranged in a 2×2 array is supported by a custom fixture 80 and in direct communication with a Franz diffusion cell, including a donor compartment 82 filled with a liquid medium interspersed with liposome encapsulated CF and a sample mouse skin. Low frequency ultrasound waves (LFUS) having a low pressure amplitude of about 55 kPa, a low acoustic intensity of about 100 mW/cm^2 and a low frequency of about 17.9 kHz was generated by ultrasound applicator 10 and directed towards a mouse skin sample 84 positioned adjacent to donor compartment 82 for about 4 hours. The amount of liposome encapsulated CF that permeated mouse skin 84 and collected within a receptor compartment 86 surrounded by a water jacket 88 was examined and measured after about 4 hours of ultrasound application when the ultrasound source was turned off and again 8 hours after the start of the experiment. The liposomes were made from 1,2-dioleoyl-sn-glycerol-3-phosphocholine (DOPC), and the liposome encapsulated CF was prepared using the dehydration-rehydration technique described in Kirby, C. and G. Gregoriadis, “Dehydration rehydration vesicles: a simple method for high yield drug entrapment in liposome,” Nature Biotechnology, 1984, 2(11): p. 9′79-984, herein incorporated by reference. In this experiment, encapsulation efficiency of the CF was improved (about 10% to about 30% measured by titration) by minimizing the amount of rehydration buffer used, adjusting pH before rehydration to fully dissolve CF by minimizing the amount of rehydration buffer used, and by adjusting the pH to about 10 and subsequently adjusting the pH to about 7.4 before rehydration. The original encapsulation efficiency of CF was about 0.67% in 100 nm liposomes, using about 5.2 mg CF in the rehydration buffer (about 2.56 mM). […] Tests D1-D2 show the results for liposome encapsulated CF after exposure to 20 minutes of low frequency ultrasound stimulation. Tests E1-3 show the results for liposome encapsulated CF upon exposure to 4 hours of low frequency ultrasound stimulation.

Delivery Efficiency (% of CF delivered) (4 hr simultaneous LFUS): 0.03% | Enhancement Ratio v. free CF, no LFUS (4 hr simultaneous LFUS): 0.00 | Amount able to permeate the mouse skin (after 8 hours, not assisted by ultrasound): less than 0.005 M/M | Delivery Efficiency (% of CF delivered) (no LFUS): 0.03% | Enhancement Ratio v. free CF, no LFUS (no LFUS): 0.00
Substance: carboxyfluorescein [Free CF]
